Reference: patent EP4810040A2, “INHIBITORS OF APOL1 AND METHODS OF USING SAME” (priority 2020, dated 2022)

Target: T1, APOL1 G1 (Homo sapiens, UniProt O14791, I384M/S342G)
T1 sequence (O14791 28-398 S342G/I384M): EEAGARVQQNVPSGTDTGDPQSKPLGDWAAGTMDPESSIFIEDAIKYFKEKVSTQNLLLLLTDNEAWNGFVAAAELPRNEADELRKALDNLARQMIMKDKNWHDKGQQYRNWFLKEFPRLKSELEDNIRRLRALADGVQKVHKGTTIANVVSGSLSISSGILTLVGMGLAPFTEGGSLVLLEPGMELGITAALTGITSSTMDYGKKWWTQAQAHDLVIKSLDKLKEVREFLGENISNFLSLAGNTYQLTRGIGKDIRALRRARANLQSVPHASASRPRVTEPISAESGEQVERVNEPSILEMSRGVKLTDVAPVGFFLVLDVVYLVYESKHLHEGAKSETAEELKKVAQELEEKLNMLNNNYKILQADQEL
Test: MultiTox-Fluor Multiplex Cytotoxicity Assay, tet-inducible APOL1 G1 T-REx-HEK293 cells
Type: cell-based
Parameters: expressed in transfected cells; host or cells: T-REx HEK293, clone G1 DC3.25 (pAAVS1-Puro-APOL1 G1)
Conditions: for IC90: HEK293, Multi-Tox Assay, APOL1 variant (G0/G1/G2) of the HEK293 cells not given, read-out: Multi-Tox Assay IC90; for Emax / Multi-Tox Assay Max Activity (%): Multi-Tox Assay, APOL1 variant not given; for Emax: read-out: Multi-Tox Assay Max Activity (%)
Description: The MultiTox-Fluor Multiplex Cytotoxicity Assay is a single-reagent-addition, homogeneous, fluorescence assay that measures the number of live and dead cells simultaneously in culture wells. The assay measures cell viability and cytotoxicity by detecting two distinct protease activities. The live-cell protease activity is restricted to intact viable cells and is measured using a fluorogenic, cell-permeant peptide glycyl-phenylalanylamino fluorocoumarin (GF-AFC) substrate. The substrate enters intact cells, where it is cleaved to generate a fluorescent signal proportional to the number of living cells. […] A second, cell-impermeant, fluorogenic peptide substrate (bis-AAF-R110 Substrate) is used to measure dead-cell protease that has been released from cells that have lost membrane integrity. A ratio of dead to live cells is used to normalize data.
Briefly, the tet-inducible transgenic APOL1 T-REx-HEK293 cell lines were incubated with 50 ng/mL tet to induce APOL1 in the presence of 3-(2-(4-fluorophenyl)-1H-indol-3-yl)-N-((3S,4R)-4-hydroxy-2-oxopyrrolidin-3-yl)propenamide at […], 0.0045, 0.0015, 0.0005 µM in duplicate for 24 hours in a humidified 37°C incubator. The MultiTox reagent was added to each well and placed back in the incubator for an additional 30 minutes. The plate was read on the EnVision plate reader. A ratio of dead to live cells was used to normalize, and data was imported, analyzed and fit using Genedata Screener (Basel, Switzerland) software. Data was normalized using percent of control, no tet (100% viability), and 50 ng/mL tet treated (0% viability),and fit using Smart Fit. The reagents, methods, and complete protocol for the MultiTox assay are described below. Table 42. Reagents Used in the Multi-Tox Assay
Human embryonic kidney (HEK293) cell lines containing a tet-inducible expression system (T-REx™; Invitrogen, Carlsbad, CA) and Adeno-associated virus site 1 pAA VS1-Puro-APOL1 G0 or pAAVS1-Puro-APOL1 G1 or pAAVS1-Puro-APOL1 G2 Clones G0 DC2.13, G1 DC3.25, and G2 DC4.44 were grown in a T-225 flask at ~90% confluency in cell growth media (DMEM, 10% Tet-free FBS, 2 mM L-glutamine, 100 Units/mL penicillin-streptomycin, 5 µg/mL blasticidin S HCl, 1 µg/mL puromycin dihydrochloride). Cells were washed with DPBS and then trypsinized to dissociate from the flask. Media was used to quench the trypsin, cells were then pelleted at 200g and resuspended in fresh cell assay media (DMEM, 2% Tet-free FBS, 2 mM L-glutamine, 100 Units/mL penicillin-streptomycin). Cells were counted and diluted to 1.17 x 10^6 cells/mL. 20 µL of cells (23,400/well) were dispensed to every well of a 384-well Poly-D-Lysine coated plate using the Multidrop dispenser. The plates were then incubated at room temperature for one hour.
Tetracycline is needed to induce APOL1 expression. 1 mg/mL tet stock in water was diluted to 250 ng/mL (5X) in cell assay media. 60 µL of cell assay media (no tet control) was dispensed in columns 1 and 24, and 60 µL of 5X tet was dispensed in 384-PP-round bottom plate in columns 2 to 23 with the Multidrop dispenser.
Assay ready plates from the Global Compound Archive were ordered using template 384_APOL1Cell_DR10n2_50uM_v3. Compounds were dispensed at 200 nL in DMSO. The final top concentration was 10 µM with a 10 point 3-fold dilution in duplicate in the MultiTox assay.
20 µL were transferred from the 5X tet plate to the ARP and mixed, then 5 µL of 5X tet and the compounds were transferred to the cell plate and mixed using the Bravo. The cell plate was placed in the humidified 37°C 5% CO2 incubator for 24 hours.
The MultiTox-Fluor Multiplex Cytotoxicity Assay was performed in accordance with the manufacturer's protocol. […]

SMILES	IC90	Emax	Multi-Tox Assay Max Activity (%)
COc1ccc(C2CC3(CC(C)N2)OCCc2cc(Cl)sc23)nn1 (mixture of isomers) [Compound 76]	< 50 nM	99.3%	–
COc1cccc(C2CC3(CC(C)N2)OCCc2cc(Cl)sc23)n1 (mixture of isomers) [Compound 135]	50 to 500 nM	–	98.0%
CC1CC2(CC(C)N1)OCCc1cc(Cl)sc12 (mixture of isomers) [Compound 194, 2-chloro-2',6'-dimethyl-spiro[4,5-dihydrothieno[2,3-c]pyran-7,4'-piperidine]]	50 to 500 nM	98.7%	–
CC1CC2(CC(CO)N1)OCCc1cc(Cl)sc12 (mixture of isomers) [Compound 210, (2-chloro-6'-methyl-spiro[4,5-dihydrothieno[2,3-c]pyran-7,4'-piperidine]-2'-yl)methanol]	> 500 nM	92.2%	–
CC1CC2(CC(C(C)C)N1)OCCc1cc(Cl)sc12 (mixture of isomers) [Compound 214]	50 to 500 nM	99.3%	–
CCC1CC2(CC(C)N1)OCCc1cc(Cl)sc12 (mixture of isomers) [Compound 215]	50 to 500 nM	99.3%	–
CC1CC2(CC(C3CCOCC3)N1)OCCc1cc(Cl)sc12 (mixture of isomers) [Compound 216]	> 500 nM	97.7%	–
CC1CC2(CC(C3CC3)N1)OCCc1cc(Cl)sc12 (mixture of isomers) [Compound 217]	< 50 nM	99.2%	–
CC1CC2(CC(C3CCC3)N1)OCCc1cc(Cl)sc12 (mixture of isomers) [Compound 218]	50 to 500 nM	99.3%	–
CC1CC2(CC(c3cccnc3)N1)OCCc1cc(Cl)sc12 (racemic) [Compound 20, 2-chloro-2'-methyl-6'-(3-pyridyl)spiro[4,5-dihydrothieno[2,3-c]pyran-7, 4'-piperidine]]	< 50 nM	99.4%	–
Cc1cc([C@@H]2C[C@]3(C[C@H](C)N2)OCCc2cc(Cl)sc23)ccn1 (racemic) [Compound 21, (2S)-2-chloro-2'-methyl-6'-(2-methyl-4-pyridyl)spiro[4,5-dihydrothieno[2,3-c]pyran-7,4'-piperidine]]	< 50 nM	99.7%	–
Cc1noc2cc([C@@H]3C[C@]4(C[C@H](C)N3)OCCc3cc(Cl)sc34)ccc12 (racemic) [Compound 25]	< 50 nM	–	100.0%
C[C@H]1C[C@@]2(C[C@@H](c3cnc4c(cnn4C)c3)N1)OCCc1cc(Cl)sc12 (racemic) [Compound 26]	< 50 nM	–	100.0%
COc1ccc([C@@H]2C[C@]3(C[C@H](C)N2)OCCc2cc(Cl)sc23)c(F)c1 (racemic) [Compound 44]	< 50 nM	–	99.5%
C[C@H]1C[C@@]2(C[C@@H](c3ccc(C(N)=O)cc3)N1)OCCc1cc(Cl)sc12 (racemic) [Compound 47]	< 50 nM	99.3%	–
Cc1n[nH]c2ncc([C@@H]3C[C@]4(C[C@H](C)N3)OCCc3cc(Cl)sc34)cc12 (racemic) [Compound 48]	< 50 nM	–	–
COc1ccc([C@@H]2C[C@]3(C[C@H](C)N2)OCCc2cc(Cl)sc23)cn1 (racemic) [Compound 49]	< 50 nM	99.7%	–
CC(=O)Nc1ccc([C@@H]2C[C@]3(C[C@H](C)N2)OCCc2cc(Cl)sc23)cc1 (racemic) [Compound 50]	< 50 nM	–	99.7%

SMILES	IC90	Emax	Multi-Tox Assay Max Activity (%)
C[C@H]1C[C@@]2(C[C@@H](c3cnc(C4CC4)nc3)N1)OCCc1cc(Cl)sc12 (racemic) [Compound 52]	< 50 nM	–	99.7%
C[C@H]1C[C@@]2(C[C@@H](c3cccc(C#N)n3)N1)OCCc1cc(Cl)sc12 (racemic) [Compound 53]	< 50 nM	–	99.3%
Cc1ccc([C@@H]2C[C@]3(C[C@H](C)N2)OCCc2cc(Cl)sc23)cn1 (racemic) [Compound 55]	< 50 nM	–	99.7%
C[C@H]1C[C@@]2(C[C@@H](c3cnn(CCO)c3)N1)OCCc1cc(Cl)sc12 (racemic) [Compound 56]	< 50 nM	–	99.8%
C[C@H]1C[C@@]2(C[C@@H](c3cnc(N)nc3)N1)OCCc1cc(Cl)sc12 (racemic) [Compound 57]	< 50 nM	–	99.7%
Cc1ccc([C@@H]2C[C@]3(C[C@H](C)N2)OCCc2cc(Cl)sc23)nn1 (racemic) [Compound 58]	< 50 nM	–	99.7%
C[C@H]1C[C@@]2(C[C@@H](c3ccc(O)cn3)N1)OCCc1cc(Cl)sc12 (racemic) [Compound 59]	< 50 nM	–	99.3%
CNc1ncc([C@@H]2C[C@]3(C[C@H](C)N2)OCCc2cc(Cl)sc23)cn1 (racemic) [Compound 60]	< 50 nM	–	99.7%
COc1ccc([C@@H]2C[C@]3(C[C@H](C)N2)OCCc2cc(Cl)sc23)cc1C#N (racemic) [Compound 62]	< 50 nM	99.3%	–
C[C@H]1C[C@@]2(C[C@@H](c3cnc(C(N)=O)cn3)N1)OCCc1cc(Cl)sc12 (racemic) [Compound 63]	< 50 nM	99.8%	–
Cc1cncc([C@@H]2C[C@]3(C[C@H](C)N2)OCCc2cc(Cl)sc23)c1 (racemic) [Compound 64]	< 50 nM	100%	–
C[C@H]1C[C@@]2(C[C@@H](c3cnn(-c4ccccc4)c3)N1)OCCc1cc(Cl)sc12 (racemic) [Compound 65]	< 50 nM	99.5%	–
Cc1cc([C@@H]2C[C@]3(C[C@H](C)N2)OCCc2cc(Cl)sc23)on1 (racemic) [Compound 66]	< 50 nM	99.8%	–
C[C@H]1C[C@@]2(C[C@@H](c3ccc4cn[nH]c4c3)N1)OCCc1cc(Cl)sc12 (racemic) [Compound 67]	< 50 nM	99.7%	–
C[C@H]1C[C@@]2(C[C@@H](c3ccc(O)nc3)N1)OCCc1cc(Cl)sc12 (racemic) [Compound 68]	< 50 nM	99.7%	–
CCOc1ccc([C@@H]2C[C@]3(C[C@H](C)N2)OCCc2cc(Cl)sc23)nc1 (racemic) [Compound 69]	< 50 nM	99.7%	–
C[C@H]1C[C@@]2(C[C@@H](c3cnc(-c4ccccc4)o3)N1)OCCc1cc(Cl)sc12 (racemic) [Compound 70]	< 50 nM	99.3%	–
C[C@H]1C[C@@]2(C[C@@H](c3ccc(C(=O)NC4CC4)cc3)N1)OCCc1cc(Cl)sc12 (racemic) [Compound 71]	< 50 nM	100%	–
